Where two headings read alike, the source gives them in different places.
Columns and labels:
Type in all cases: biochemical
[1] = molecular target: TrkA (histidine-tagged recombinant human TrkA, cytoplasmic domain) (Homo sapiens (Human), UniProt P04629); assay: TrkA ELISA Assay
How it was run: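 ELISA read-out: a peroxidase-linked anti-phosphotyrosine antibody (PY20, 0.2 μg/mL) with TMB substrate, absorbance at 450 nm after acid stop. The plate-bound substrate was poly(Glu,Ala,Tyr; 6:3:1) at 0.025 mg/mL, phosphorylated by the recombinant His-tagged human TrkA cytoplasmic domain in the presence of inhibitors.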

Human Tyk2 kinase domain = Human Tyk2 kinase domain (Homo sapiens (Human), UniProt P29597); assay: Tyk2 Inhibition Assay (Omnia kinase assay); conditions: Table 2; for IC50: 500 μM ATP
Procedure: (§1) The assays described in Examples C, D, E and F for the determination of JAK1, JAK2, JAK3 and Tyk2 kinase activity, respectively, utilized the Omnia® Kinase fluorescence peptide substrate-based technology (Invitrogen). […] The reactions were therefore read at excitation 360 nm and emission was measured at 485 nm every 50 seconds for 45 minutes using a PerkinElmer EnVision Multilabel Plate Reader.
(§2) The final buffer conditions for each of the JAK1, JAK2, JAK3 and Tyk2 assays were as follows: 25 mM HEPES, pH 7.4, 10 mM MgCl2, 0.01% Triton X-100 and 1 mM DTT.
(§3) Compounds were prepared at 50× the final concentration in DMSO by conducting 3-fold serial dilutions from a 500-μM or 1000-μM intermediate dilution to give a 10-point dosing curve having a high dose of 10 or 20 μM. Two-μL aliquots of these were transferred to a fresh plate for a ten-fold intermediate dilution with assay buffer. Five-μL aliquots of the diluted compounds were then transferred to 20-μL of assay mixtures described in Examples C, D, E and F for a final concentration of DMSO of 2%. A standard or reference compound was typically included on each assay plate to validate that plate. For each plate, percent of control (POC) values were calculated for each well according to the following equation:
(§4) [formula] • where • Xmax=Average Uninhibited Controls • Xmin=Average Background IC50's were estimated from the POC's using a standard 4-parameter logistic model:
(§5) [formula] • where • A=Minimum Y (Bottom Asymptote) • B=Maximum Y (Top Asymptote) • C=EC50 • D=Slope Factor • X=Compound Concentration (nM) • Y=POC
(§6) The IC50 is defined as the concentration of inhibitor at which the POC equals 50 for the fitted curve.
Compounds of Formula I were screened for their ability to inhibit Tyk2 using the general enzyme inhibition assay method, in which the assay mixture contained 500 μM ATP, 8 μM Omnia® Y12 peptide (Catalog # IVGN KPZ3121C; Invitrogen Corporation, Carlsbad, Calif.) and 1 nM Tyk2 in a total volume of 20 μL. Human Tyk2 kinase domain, comprising amino acids 886 to 1187 with 10 additional histidine residues (histidine tag) on the carboxy terminus, was expressed and purified from bacculovirus in-house at Array BioPharma Inc. (Boulder, Colo.). The histidine tag was cleaved after purification using standard conditions.

[2] = molecular target: GST-tagged human Jak3 kinase domain (Homo sapiens (Human), UniProt P52333); assay: Jak3 Inhibition Assay (Omnia kinase assay); conditions: Table 2; for IC50: 500 μM ATP
Procedure: as §1, §2, §3, §4, §5, §6
Compounds of Formula I were screened for their ability to inhibit Jak3 using the general enzyme inhibition assay method, in which the assay mixture contained 500 μM ATP, 10 μM Omnia® Y7 peptide (Catalog # IVGN KNZ3071C, Invitrogen Corporation, Carlsbad, Calif.) and 1.5 nM Jak3 in a total volume of 20 μL. GST-tagged human Jak3 kinase domain comprising amino acids 781-1124 was purchased from Invitrogen Corporation, Carlsbad, Calif. (catalog # IVGN PV3855).

Human Jak2 kinase domain = Human Jak2 kinase domain (Homo sapiens (Human), UniProt O60674); assay: Jak2 Inhibition Assay (Omnia kinase assay); conditions: for IC50: 500 μM ATP; for inhibition at 1 µM: 1000 nM test compound
[3] = molecular target: GST-tagged human Jak1 kinase domain (Homo sapiens (Human), UniProt P23458); assay: Jak1 Inhibition Assay (Omnia kinase assay); conditions: Table 2; for IC50: 500 μM ATP
Procedure: as §1, §2, §3, §4, §5, §6
Compounds of Formula I were screened for their ability to inhibit Jak1 using the general enzyme inhibition assay method, in which the assay mixture contained 500 μM ATP, 8 μM Omnia® Y12 peptide (Catalog # IVGN KPZ3121C; Invitrogen Corporation, Carlsbad, Calif.) and 5 nM Jak1 in a total volume of 20 μL. […] (catalog # IVGN PV4774).

[4] = Table 1, ELISA, 500 μM ATP, read-out: TrkA Enzyme IC50
[5] = Table 1, >1000 nM when >50% inhibition not observed at 1000 nM, read-out: Jak2 Enzyme IC50

Chain of Human Tyk2 kinase domain (P29597 886-1187): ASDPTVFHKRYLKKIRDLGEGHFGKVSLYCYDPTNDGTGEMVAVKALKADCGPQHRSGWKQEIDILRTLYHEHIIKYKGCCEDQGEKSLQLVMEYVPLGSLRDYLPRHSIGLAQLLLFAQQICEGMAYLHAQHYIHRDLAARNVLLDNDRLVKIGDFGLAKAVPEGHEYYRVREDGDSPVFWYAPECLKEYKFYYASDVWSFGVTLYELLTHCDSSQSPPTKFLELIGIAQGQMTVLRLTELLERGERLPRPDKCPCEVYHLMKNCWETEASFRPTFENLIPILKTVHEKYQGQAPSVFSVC
Chain of GST-tagged human Jak3 kinase domain (P52333 781-1124): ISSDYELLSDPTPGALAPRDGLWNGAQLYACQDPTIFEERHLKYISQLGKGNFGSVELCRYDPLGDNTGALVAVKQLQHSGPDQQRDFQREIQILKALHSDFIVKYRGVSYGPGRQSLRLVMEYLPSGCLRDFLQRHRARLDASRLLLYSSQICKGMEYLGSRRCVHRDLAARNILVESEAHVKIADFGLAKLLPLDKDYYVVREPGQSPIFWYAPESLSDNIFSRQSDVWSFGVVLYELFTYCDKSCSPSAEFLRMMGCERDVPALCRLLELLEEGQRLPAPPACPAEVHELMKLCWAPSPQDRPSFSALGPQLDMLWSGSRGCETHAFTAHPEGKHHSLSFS
Chain of TrkA (histidine-tagged recombinant human TrkA, cytoplasmic domain) (P04629 440-796): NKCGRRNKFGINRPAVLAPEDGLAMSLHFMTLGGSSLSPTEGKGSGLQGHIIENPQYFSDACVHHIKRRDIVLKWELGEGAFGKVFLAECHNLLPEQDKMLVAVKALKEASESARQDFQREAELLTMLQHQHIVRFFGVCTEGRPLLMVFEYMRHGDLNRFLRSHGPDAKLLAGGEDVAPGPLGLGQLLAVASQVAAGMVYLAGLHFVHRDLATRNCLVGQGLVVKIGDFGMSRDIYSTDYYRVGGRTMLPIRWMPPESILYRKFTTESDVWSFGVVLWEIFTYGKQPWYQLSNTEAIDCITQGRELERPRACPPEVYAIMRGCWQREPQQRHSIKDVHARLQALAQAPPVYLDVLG
Chain of GST-tagged human Jak1 kinase domain (P23458 866-1154): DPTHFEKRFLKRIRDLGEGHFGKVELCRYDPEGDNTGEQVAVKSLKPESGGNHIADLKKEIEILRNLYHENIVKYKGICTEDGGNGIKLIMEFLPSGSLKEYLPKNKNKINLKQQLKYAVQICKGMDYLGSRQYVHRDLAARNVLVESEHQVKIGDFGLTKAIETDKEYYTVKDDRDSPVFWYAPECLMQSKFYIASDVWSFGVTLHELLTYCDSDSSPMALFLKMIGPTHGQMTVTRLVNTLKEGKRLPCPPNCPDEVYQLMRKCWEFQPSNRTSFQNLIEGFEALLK
Chain of Human Jak2 kinase domain (O60674 808-1132): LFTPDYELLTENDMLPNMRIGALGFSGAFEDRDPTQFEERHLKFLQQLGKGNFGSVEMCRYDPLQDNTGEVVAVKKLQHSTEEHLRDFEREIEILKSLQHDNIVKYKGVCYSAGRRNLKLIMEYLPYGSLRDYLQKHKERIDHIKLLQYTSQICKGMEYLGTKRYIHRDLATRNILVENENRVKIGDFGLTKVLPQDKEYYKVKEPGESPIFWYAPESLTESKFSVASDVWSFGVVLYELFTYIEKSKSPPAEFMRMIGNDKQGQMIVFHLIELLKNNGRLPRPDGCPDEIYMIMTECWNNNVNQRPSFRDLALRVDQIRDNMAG

Row | Structure (SMILES) | IC50 [1, 4] [µM] | IC50 ([1]; Table 2, read-out: TrkA IC50) [µM] | IC50 (Human Tyk2 kinase domain) [µM] | IC50 [2] [µM] | IC50 (Human Jak2 kinase domain; [5]) [µM] | IC50 (Human Jak2 kinase domain; Table 2, read-out: Jak2 IC50) [µM] | IC50 [3] [µM] | inhibition at 1 µM (Human Tyk2 kinase domain; read-out: Tyk2 (% inhibition at 1000 nM), 1000 nM test compound) [%] | inhibition at 1 µM ([2]; read-out: Jak3 (% inhibition at 1000 nM), 1000 nM test compound) [%] | inhibition at 1 µM (Human Jak2 kinase domain; read-out: Jak2 (% inhibition at 1000 nM), Table 2) [%] | inhibition at 1 µM (Human Jak2 kinase domain; read-out: Jak2 Enzyme (% inhibition at 1000 nM), Table 1) [%] | inhibition at 1 µM ([3]; read-out: Jak1 (% inhibition at 1000 nM), 1000 nM test compound) [%]
1 | O=C(NC1(C(F)(F)F)CC1)c1cnn2ccc(N3CCC[C@@H]3c3cncc(F)c3)nc12 [Example 98, (R)-5-(2-(5-fluoropyridin-3-yl)pyrrolidin-1-yl)-N-(1-(trifluoromethyl)cyclopropyl)pyrazolo[1,5-a]pyrimidine-3-carboxamide] | 0.009 | 0.009 | > 1 | > 1 | > 1 | > 1 | > 1 | – | – | – | – | –
2 | O=C(NCC1CC1)c1cnn2ccc(N3CCC[C@@H]3c3cncc(F)c3)nc12 [Example 106, (R)-N-(cyclopropylmethyl)-5-(2-(5-fluoropyridin-3-yl)pyrrolidin-1-yl)pyrazolo[1,5-a]pyrimidine-3-carboxamide] | 0.0077 | 0.0076 | > 1 | > 1 | > 1 | > 1 | > 1 | – | – | – | – | –
3 | Cc1ncc(F)cc1[C@H]1CCCN1c1ccn2ncc(C(=O)NC3CC3)c2n1 (stereo in doubt) [Example 181, N-cyclopropyl-5-(2-(5-fluoro-2-methylpyridin-3-yl)pyrrolidin-1-yl)pyrazolo[1,5-a]pyrimidine-3-carboxamide] | 0.0171 | 0.0298 | > 1 | > 1 | > 1 | > 1 | > 1 | 10.7 | 8.9 | 18.1 | 5.2 | 12.8
4 | COc1ncc(F)cc1[C@H]1CCCN1c1ccn2ncc(C(=O)N[C@H]3CC[C@H](O)CC3)c2n1 [Example 140, 5-((R)-2-(5-fluoro-2-methoxypyridin-3-yl)pyrrolidin-1-yl)-N-((trans)-4-hydroxycyclohexyl)pyrazolo[1,5-a]pyrimidine-3-carboxamide] | – | – | – | > 1 | – | – | 0.546 | – | – | – | – | –
5 | C[C@H](NC(=O)c1cnn2ccc(N3CCC[C@@H]3c3cncc(F)c3)nc12)C1CC1 [Example 124, N-((S)-1-cyclopropylethyl)-5-((R)-2-(5-fluoropyridin-3-yl)pyrrolidin-1-yl)pyrazolo[1,5-a]pyrimidine-3-carboxamide] | 0.0029 | 0.0029 | > 1 | > 1 | 0.759 | 0.759 | > 1 | – | – | – | – | –
6 | CC(C)NC(=O)c1cnn2ccc(N3CCC[C@@H]3c3cncc(F)c3)nc12 [Example 93, (R)-5-(2-(5-fluoropyridin-3-yl)pyrrolidin-1-yl)-N-isopropylpyrazolo[1,5-a]pyrimidine-3-carboxamide] | 0.0051 | 0.0051 | > 1 | > 1 | > 1 | > 1 | > 1 | – | – | – | – | –
7 | NC(=O)c1cnn2ccc(N3CCC[C@@H]3c3cc(F)ccc3F)nc12 [Example 30, (R)-5-(2-(2,5-difluorophenyl)pyrrolidin-1-yl)pyrazolo[1,5-a]pyrimidine-3-carboxamide] | 0.00195 | 0.0019 | > 1 | > 1 | > 1 | > 1 | > 1 | – | – | – | – | –
8 | Cc1ncc(F)cc1[C@H]1CCCN1c1ccn2ncc(C(=O)NC3(C)CC3)c2n1 [Example 190, (R)-5-(2-(5-fluoro-2-methylpyridin-3-yl)pyrrolidin-1-yl)-N-(1-methylcyclopropyl)pyrazolo[1,5-a]pyrimidine-3-carboxamide] | 0.0024 | 0.0024 | > 1 | > 1 | > 1 | > 1 | > 1 | – | – | – | – | –
9 | CNC(=O)c1cnn2ccc(N3CCC[C@@H]3c3cncc(F)c3)nc12 [Example 114, (R)-5-(2-(5-fluoropyridin-3-yl)pyrrolidin-1-yl)-N-methylpyrazolo[1,5-a]pyrimidine-3-carboxamide] | 0.0299 | 0.0171 | > 1 | > 1 | > 1 | > 1 | > 1 | – | – | – | – | –
10 | CC1(NC(=O)c2cnn3ccc(N4CCC[C@@H]4c4cncc(F)c4)nc23)CC1 [Example 91, (R)-5-(2-(5-fluoropyridin-3-yl)pyrrolidin-1-yl)-N-(1-methylcyclopropyl)pyrazolo[1,5-a]pyrimidine-3-carboxamide] | 0.0032 | 0.0032 | > 1 | > 1 | > 1 | > 1 | > 1 | – | – | – | – | –
11 | O=C(NC1CC1)c1cnn2ccc(N3CCC[C@@H]3c3cncc(F)c3)nc12 [Example 52, (R)—N-cyclopropyl-5-(2-(5-fluoropyridin-3-yl)pyrrolidin-1-yl)pyrazolo[1,5-a]pyrimidine-3-carboxamide] | 0.0074 | 0.0074 | > 1 | > 1 | > 1 | > 1 | > 1 | – | – | – | – | –
12 | C[C@@H](NC(=O)c1cnn2ccc(N3CCC[C@@H]3c3cncc(F)c3)nc12)C1CC1 [Example 123, N-((R)-1-cyclopropylethyl)-5-((R)-2-(5-fluoropyridin-3-yl)pyrrolidin-1-yl)pyrazolo[1,5-a]pyrimidine-3-carboxamide] | 0.0064 | 0.0063 | > 1 | > 1 | > 1 | > 1 | > 1 | – | – | – | – | –

— patent US8791123B2, “Substituted pyrazolo[1,5-a]pyrimidine compounds as Trk kinase inhibitors” (Array Biopharma, Inc., priority 2009, dated 2014)
